Experimental findings from patent US7754896B2, “Indol-alanine derivatives as selective S1P4-agonists” (Novartis AG, priority 2004, dated 2010) are described below.

One assay deals with T1, S1P2 (Homo sapiens, UniProt O95136).
T1 construct: expressed in transfected cells
The assay is described as follows: GTPγS binding assay, S1P2. The assay is classed as biochemical. The note with it: CHO cells expressing S1P2. The source says:
Human S1P1 (GenBank™ accession number M31210) and S1P3 (GenBank™ accession number X83864) cDNA containing the myc sequence in front to the human S1P1 and S1P3 sequences are inserted in the pcDNA 3.1 vector. The vectors are sequenced to completion to confirm the correctness of the construct. The human S1P2 (GI: 4090955, TREMBL: 0195136) is cloned by a PCR based method. Lung cDNA (marathon cDNA) is obtained (BD Biosciences Chontech, Palo Alto, Calif. 94303, USA). Following oligonucleotides are used for the PCR reaction: forward primer CACCATGGGCAGCTTGTACTCGGAGTACCT GM CCC CAA CM GGT CCA G (1 to 45, GenBank™ accession number AF034780) and reverse primer 5′-GATTCAGACCACCGTGTTGCCCTCCAG (1062 to 1039, GenBank™ accession number AF034780), the initiation of the translation (ATG) and the stop codon are underlined. […] The amplified product of around 1100 bp is analyzed by standard agarose gel-electrophoresis. […]
Membrane proteins are prepared from wild type CHO-K1 and the CHO cell clones expressing human S1P4. […] The protein concentration is determined using the Bio Rad Protein Assay and human IgG as standard. […]

Another assay has as its target T2, S1P3 (Homo sapiens, UniProt Q99500).
T2 construct: expressed in transfected cells
The assay is described as follows: Calcium mobilization assay, CHO cells expressing S1P3. It counts as cell-based. From the text: Human S1P1 (GenBank™ accession number M31210) and S1P3 (GenBank™ accession number X83864) cDNA containing the myc sequence in front to the human S1P1 and S1P3 sequences are inserted in the pcDNA 3.1 vector. The vectors are sequenced to completion to confirm the correctness of the construct. The human S1P2 (GI: 4090955, TREMBL: 0195136) is cloned by a PCR based method. Lung cDNA (marathon cDNA) is obtained (BD Biosciences Chontech, Palo Alto, Calif. 94303, USA). […] The amplified product of around 1100 bp is analyzed by standard agarose gel-electrophoresis. […]
CHO cells are plated in black Costar plate (96 or 384 well, 50,000 cells or 12,500 cells, respectively) in a MEM with FCS and cultured for 20-24 h at 37° C. in a CO2 incubator. […] After measuring the baseline for 40 sec, the agonist in HBSS is added and the fluorescence is measured at intervals of 2 sec for 3 to 5 min. […]
The compounds mentioned in this application are tested for specificity, e.g. the activity they have in the parental cell line prior transformation with the S1P4 cDNA and for selectivity on CHO cells lines transformed with the S1P1, S1P2, S1P3, and S1P5. […] For example, S1P4 specific and selective compounds may have an EC50 (apparent EC50) measured at S1P4 that is 10×, preferably 100× lower that that measured in wild type CHO cells or In cell expressing any of the other four S1P receptors.

Each structure is given as a SMILES string. pEC50: −log10 of the molar value. Some results are limits rather than exact numbers.

T2 sequence (Q99500 whole entry): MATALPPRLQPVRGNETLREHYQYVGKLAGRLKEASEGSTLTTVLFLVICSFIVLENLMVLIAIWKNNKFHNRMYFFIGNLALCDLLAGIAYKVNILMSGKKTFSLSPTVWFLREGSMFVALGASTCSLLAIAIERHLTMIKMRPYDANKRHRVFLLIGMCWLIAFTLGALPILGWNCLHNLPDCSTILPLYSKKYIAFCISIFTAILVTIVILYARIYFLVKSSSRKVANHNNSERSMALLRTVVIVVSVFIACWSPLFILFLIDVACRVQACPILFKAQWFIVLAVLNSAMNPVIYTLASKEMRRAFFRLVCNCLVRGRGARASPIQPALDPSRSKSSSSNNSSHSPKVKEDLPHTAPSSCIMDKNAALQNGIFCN
T1 sequence (O95136 whole entry): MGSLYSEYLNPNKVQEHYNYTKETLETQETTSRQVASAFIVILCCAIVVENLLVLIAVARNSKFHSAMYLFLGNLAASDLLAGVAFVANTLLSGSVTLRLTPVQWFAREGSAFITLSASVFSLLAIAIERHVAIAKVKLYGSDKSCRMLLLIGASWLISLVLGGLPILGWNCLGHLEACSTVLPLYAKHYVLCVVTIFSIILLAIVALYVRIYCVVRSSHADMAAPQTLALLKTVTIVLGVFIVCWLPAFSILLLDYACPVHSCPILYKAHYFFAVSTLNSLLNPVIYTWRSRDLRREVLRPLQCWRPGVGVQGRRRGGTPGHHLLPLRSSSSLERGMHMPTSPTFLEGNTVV

As for `NC(CNC(=O)c1cc2c(-c3ccccc3Cc3ccccc3)cccc2[nH]1)C(=O)O` (centres unmarked) [Example 2], the negative-log EC50 (pEC50) at S1P2 was less than 5.00; at S1P3, less than 5.22.

One may read the pEC50 as −log10 of the EC50, conventionally taken in molar units.
